Patent US8628753B2, “Reduced dye probes for the detection of radical oxygen species” (Emory University, priority 2008, dated 2014)

Legend:
[1] = system: rat aortic smooth muscle (RASM) cells; test: Detection of ROS in RASM cells during Ang II mediated cell signaling; format: cell-based; conditions: for background fluorescence / detection of intracellular ROS after Ang II stimulation: 10 minutes; for detection of intracellular ROS after Ang II stimulation: fluorescent microscopy
Method: The ability of hydrocyanines to detect ROS in rat aortic muscle (RASM) cells during angiotensin (Ang) II mediated cell signaling was evaluated using fluorescence spectroscopy. Ang II-mediated ROS production in aortic smooth muscle cells has been implicated in the development of atherosclerosis and hypertension.
[…] […] It is evident from fluorescence measurements that hydro-Cy3 is sensitive enough to detect even the ROS production by normal cells, causing relatively higher background fluorescence. On the other hand, because of the tuned reaction rate, deutero-Cy3 can only detect the overproduction of ROS during Ang-II mediated ROS over-production.
The ability of D-DHE to detect ROS in rat aortic muscle (RASM) cells during angiotensin (Ang) II mediated cell signaling was evaluated using fluorescence spectroscopy. A comparative cell-culture study between DHE and D-DHE was conducted to evaluate the ability of DHE and D-DHE to detect ROS production in rat aortic smooth muscle (RASM) cells, during angiotensin (Ang) II mediated cell signaling.
[…] […] Stimulation of RASMs with Ang II was not detected with DHE due to the high level background fluorescence.

physchem = conditions: for half-life: buffer, pH 7.4
Method: A solution of hydrocyanine in PBS buffer (pH 7.4) was placed in an Eppendorf tube and placed in a 37° C. water bath. Stability was measured by monitoring the formation of the oxidation product using fluorescence spectroscopy over a 24 hour period. The excitation and emission wavelengths for DHE were 515 and 590 nm.
The stability of deuterocyanines was evaluated in the same manner.

[2] = Sensitivity of DHE and D-DHE to Fenton's reagent in PBS; conditions: 50 μM probe in PBS; FIG. 4
Method: The sensitivity of deuterohydroethydium (D-DHE or DDE) was evaluated in the same manner. A 50 μM solution of DHE or D-DHE (DDE) in PBS buffer was treated with Fenton's reagent (using 1-60 nM H2O2 with Fe^2+) and the fluorescence of the oxidized product was measured.

[3] = system: live, explanted mouse aortas; test: Detection of ROS in live, explanted mouse aortas after LPS stimulation; set-up: species or system C57B1/6 mice; conditions: for detection of ROS in tissue explants (LPS versus PBS): confocal fluorescent imaging
Method: The ability of hydrocyanines to detect ROS from live, explanted mouse aortas, after lipopolysaccharide endotoxin (LPS) stimulation to produce ROS, was evaluated. The detection of ROS in live tissue can provide information about ROS production in a physiological environment that closely resembles in vivo conditions. C57B1/6 mice were treated with either 16 mg/kg lipopolysaccharide endotoxin (LPS) or PBS for 16 hours and then euthanized. The aortas of the mice were isolated and incubated with either Hydro-Cy3 or Hydro-Cy3+TEMPOL for 15 minutes. Sections of the aorta were made, fixed with 10% formalin, and mounted en face.
For example, the fluorescence intensity of the LPS-treated slide was 183.2 RFU/S compared to 46.9 RFU/S in the PBS-treated mice. Application of TEMPOL (small molecule cell-permeable superoxide dismutase mimetic1, which attenuates superoxide anion and peroxynitrite-induced inflammation) to mouse aortas, treated with LPS, reduced the fluorescence to control levels.

[4] = Fluorescence of hydrocyanines before and after reaction with superoxide (KO2); format: physicochemical; conditions: for λem: emission wavelength of the corresponding oxidized product; for λex: excitation wavelength of the corresponding oxidized product; for Fold Increase in Intensity: oxidized versus reduced dye, 7.5 μM in 1 mL methanol, oxidized with 20 μL DMSO containing 20 mM KO2
Method: Superoxide (O2^−) was created by the enzymatic reaction of XA/XO (10 lm/10 mU) at 25° C. for 5 min (XA=[…]). XA/XO (10 lm/10 mU) was added to buffered solutions of Hydro-Cy3 ([…]) maintained in a 37° C. water bath. The fluorescence emission of each reaction mixture was measured at 5-min intervals against a reagent blank using a fluorescence spectrometer. In some cases solid KO2 (1 mg) or KO2 dissolved in DMSO was added to a Hydro-IR-786 solution in methanol or DMSO and the emission spectra was recorded. Alternatively, hydro-IR-786 (2 mg) was dissolved in 1 mL of ethanol and 50 μL of […] KO2 solution (7 mg KO2 was dissolved in 10 mL dimethylsulfoxide) was added and stirred for 15 min before recording the emission spectra.

carotid arteries = test: DHE staining of carotid artery sections after carotid ligation; set-up: species or system Mice; conditions: 10 μmol/L in PBS, 30 minutes at 37° C.; 14 days after ligation
Method: Mice were anesthetized with ketamine/xylazine and their left carotid arteries were exposed and tied with a 6-0 silk suture 1 cm below the bifurcation as described in the literature. The control was sham operated mice. The mice were sacrificed 14 days after ligation and their carotid arteries were isolated and frozen, enzymatically-intact, and 30 μm-thick sections of sham operated and injured carotid arteries were made. The frozen sections were incuvated with DHE (10 μmol/L) in PBS for 30 minutes at 37° C. in a humidified chamber protected form light. DHE is oxidized on reaction with superoxide to ethidium bromide, which binds to DNA in the nucleus and fluoresces red. The DHE stained slides were imaged on a confocal microscope. The ethidium bromide fluorescence was detected using a 543 nm He—Ne laser for excitation and a 560 nm long pass filter for emission. The autofluorescence of the elastic laminae was detected using a 488 nm Ar laser for excitation combined with a 500-550 nm band pass filter for emission.

RASM cells = test: Trypan blue cell viability assay; format: cell-based, rat; conditions: experimental conditions of RASM assay and higher concentrations (1 mM)
[5] = Sensitivity to hydroxide radical generated from H2O2 and Fe2+
Method: Hydroxide radicals were generated in situ by reacting hydrogen peroxide with Fe^2+. Various quantities of hydrogen peroxide (H2O2) stock solutions were added to a solution of hydrocyanine in methanol to generate hydrogen peroxide concentrations from about 2 to about 30 nM. Aqueous Fe^2+(1 μM) was added to the reduced dye/H2O2 solution to generate a 200 nM concentration. The resulting solution was kept at ambient temperature for 5 minutes and the fluorescence intensity was measured (λex/λem) against a reagent blank (control solution containing only reagent) simultaneously.
This measurement was carried out using 100 μM of Hydro-ICG at 25° C. The hydroxide radical was generated using the procedure described above.

[6] = Specificity to various reactive oxygen species; conditions: 50 μM probe in PBS with 1% methanol; equimolar ROS; 5 minutes at 25° C.; FIG. 5
Method: A 50 μm Hydro-Cy7 solution was prepared in phosphate buffered saline (PBS) containing 1% methanol. Various reactive oxygen species were added to the 50 μm Hydro-Cy7 solution, at an equimolar ratio to Hydro-Cy7, and the fluorescence intensity was recorded after incubating 5 minutes at 25° C. Superoxide (O2^−) was added as solid KO2. Stock solutions of hydrogen peroxide, t-butyl hydrogen peroxide (TBHP), hypochlorite, 3-morpholinosydnonimine (SIN-1), glutathione (GSH), and 1,4-hydroquinone were prepared and added to the Hydro-Cy7 solution to generate a final concentration of 50 μM. 3-(aminopropyl)-1-hydroxy-3-isopropyl-2-oxo-1-triazene (NOC-5, 1 mM) was prepared as a 10 mM sodium hydroxide solution and added to the Hydro-Cy7 solution to generate a final concentration of 50 μM. The hydroxide and butoxy radicals were generated in situ by reacting hydrogen peroxide and t-butylperoxide with Fe^2+. A 50 μM Hydro-Cy7 solution, in PBS, containing 500 μM Fe^2+ was prepared and either hydrogen peroxide or t-butyl hydrogen peroxide was added to this solution to generate a final concentration of 50 μM.

[7] = system: ROS production generated by activated macrophages and neutrophils; test: In vivo imaging of ROS in LPS model of acute inflammation; set-up: species or system C57B1/6 mice; conditions: 5 nanomoles i.p., 6 hours after LPS (1 mg i.p.); abdominal area; FIG. 7
Method: The ability of hydrocyanines to image ROS production, in vivo, generated by activated macrophages and neutrophils, in an LPS model of acute inflammation was evaluated. Nine C57B1/6 mice were divided into three groups: Group I was given an intraperitoneal (i.p.) injection of LPS (1 mg in 400 μL saline); Group II was given saline (400 μL); and Group III was untreated. After 6 hours, the mice were anaesthetized, their abdominal fur was removed, and the LPS and saline treated mice were injected i.p. with Hydro-Cy7 (5 nanomoles in 50 μL methanol). The mice were images as triplets, one from each group, using a Kodak FX in vivo images with a 700 nm excitation laser and a 790 nm emission filter. […] The mean fluorescent intensity, from the abdominal area, from the three sets of mice was also quantified using Image-Pro software. LPS-treated mice had approximately two-fold higher fluorescence intensity than the saline group.

Compound | half-life (physchem) [h] | λem [4] [nm] | λex [4] [nm] | background fluorescence ([1]; probe 10 μM) | detection of intracellular ROS after Ang II stimulation ([1]; probe 10 μM) | detection of ROS (fluorescence) in cells incubated with Ang II ([1]; probe 100 μM) | detection of ROS in tissue explants (LPS versus PBS) [3] | Fold Increase in Intensity [4] [fold] | also measured
[2H]C1(c2ccccc2)c2cc(N)ccc2-c2ccc(N)cc2N1CC [D-DHE, deuterohydroethydium] |  |  |  | very low levels of background fluorescence | significant increase in fluorescence |  |  |  | change in fluorescence on application of TEMPOL ([1]; cells treated with probe (10 μM) and Ang II): dramatic decrease in fluorescence; detection of intracellular ROS after Ang II stimulation ([1]; probe 10 μM, listed as DDE): significantly better than DHE; increase in stability versus DHE (physchem): 4-6 fold; concentration range in which ROS is accurately measured [2]: 5 to 60 nM
CCN1c2cc(N)ccc2-c2ccc(N)cc2C1c1ccccc1 (centres unmarked) [DHE, dihydroethydium, reference compound] | 0.5 | 590 | 515 | large amount of background fluorescence | not detected | failed to detect ROS | failed to detect ROS |  | ROS detection in ligated versus sham carotid artery sections (carotid arteries): increased red fluorescence compared to the sham mice
CCN1/C(=C/C=C/C2N(CC)c3ccccc3C2(C)C)C(C)(C)c2ccccc21 (centres unmarked) [Hydro-Cy3] | ~72 | 560 | 535 |  |  | intense intracellular fluorescence | significantly higher fluorescence intensity | 118 | cellular toxicity (RASM cells): no cellular toxicity; change in fluorescence on application of TEMPOL ([1]; cells treated with probe (100 μM) and Ang II): dramatic decrease in fluorescence; background fluorescence ([1]; probe 50 μM): relatively higher amounts of background fluorescence; fluorescence of cells incubated with probe alone ([1]; probe 100 μM, no Ang II): significantly less fluorescence; integrated total fluorescence intensity ([3]; aortas of LPS-treated mice (16 mg/kg, 16 hours), probe 15 minutes): 183.2 RFU/S; integrated total fluorescence intensity ([3]; aortas of LPS-treated mice, probe + TEMPOL): 34.9 RFU/S; integrated total fluorescence intensity ([3]; aortas of PBS-treated mice): 46.9 RFU/S; concentration range of linear concentration curve against hydroxide radical [5]: 5 to 50 nM; detected concentration of hydroxide radical [5]: 5 nM

Further lines, with some results ahead:

half-life (physchem) [h] | λem [4] [nm] | λex [4] [nm] | Compound | background fluorescence ([1]; probe 10 μM) | detection of intracellular ROS after Ang II stimulation ([1]; probe 10 μM) | detection of ROS (fluorescence) in cells incubated with Ang II ([1]; probe 100 μM) | detection of ROS in tissue explants (LPS versus PBS) [3] | Fold Increase in Intensity [4] [fold] | also measured
~72 | 760 | 735 | CCN1/C(=C/C=C/C=C/C=C/C2N(CC)c3ccccc3C2(C)C)C(C)(C)c2ccccc21 (centres unmarked) [Hydro-Cy7] |  |  |  |  | 104 | ROS specificity [6]: specificity for superoxide and hydroxyl radical; fluorescence intensity of LPS-treated mice relative to saline group [7]: approximately two-fold
 | 693 | 675 | CN1/C(=C/C=C/C=C/C2N(C)c3ccc4ccccc4c3C2(C)C)C(C)(C)c2c1ccc1ccccc21 (centres unmarked) [Hydro-IR-676] |  |  |  |  | 100 | 
